Each structure is given as a SMILES string.

The series in a line: gradient 5% acetonitrile 3 min, to 50% in 2 min, to 85% in 15 min, held 3 min, 100 µL/min. As to conditions: column: Zorbax Extend-C18 2.1 x 50 mm; eluents: water / acetonitrile, 0.1% formic acid. The essentials: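 Mixtures of ~100 pure standards were chromatographed on a Zorbax Extend-C18 column (2.1 × 50 mm, 1.8 μm) at 100 μL/min using water and acetonitrile, each with 0.1% formic acid. Detection used a quadrupole time-of-flight mass spectrometer in positive and negative ionization mode, and data collection spanned 3 months. Retention time was obtained from adduct peaks picked computationally and each checked manually.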
`O=C(c1cc2c(s1)-c1ccsc1CC2)N1CCN(c2ccccn2)CC1` showed an RP-LC retention time of 698 s.

Consider `CCc1nn2c(=O)cc(CSc3nnc(-c4cccc(C)c4)o3)nc2s1`, for which the RP-LC retention time stood at 800 s.

As for `CCOC(=O)C1=C(N)Oc2cc(C)n(CCN(C)C)c(=O)c2C1c1ccccc1` (centres undefined), the RP-LC retention time was 572 s.

Compound `CS(=O)(=O)N1CCC(OC2CCN(C(=O)Nc3cccc(Cl)c3)CC2)CC1` showed an RP-LC retention time of 831 s.

As for `O=C(Nc1ccc(Cl)cc1)N1CCc2[nH]cnc2C1c1ccncc1` (centres undefined), the RP-LC retention time is 565 s.

In turn, `CC(C)Cn1cc(CCNC(=O)c2cncc(Br)c2)c2cccnc21` gave an RP-LC retention time of 796 s.

Compound `CCc1nnc2nc(N3CCN(C(=O)C(C)Oc4ccccc4)CC3)cc(C)n12` (centres undefined) showed an RP-LC retention time of 622 s.

On to `Cc1nc2ccccc2nc1NS(=O)(=O)c1ccc(N)cc1`, for which the RP-LC retention time was 764 s.

Compound `Cc1nnc(N2C(=O)C(O)=C(C(=O)c3ccco3)C2c2ccc([N+](=O)[O-])cc2)s1` (centres undefined) came in with an RP-LC retention time of 793 s.

Take `COc1ccc2c(c1)C1(CCN(C(=O)NC(C)(C)C)C1)C(=O)N2` (centres undefined): the RP-LC retention time is 695 s.

`COc1cc(NS(=O)(=O)c2ccc(-c3nnc(C4CCC4)o3)o2)cc(OC)c1` registered an RP-LC retention time of 886 s.

As to `O=C(COc1cccc(Br)c1)Nc1nc(-c2ccccc2)cs1`, the RP-LC retention time was 1130 s.

With `COc1ccc(S(=O)(=O)N2CCN(c3ccc(Nc4ccccn4)nn3)CC2)cc1C`, the RP-LC retention time came to 603 s.

Compound `Cc1ccc(-n2cc(C3=CCN(CC(=O)N4CCN(c5ccccn5)CC4)CC3)cn2)cc1C` returned an RP-LC retention time of 596 s.

In the case of `CCC(C)C(NC(=O)Cc1ccc(Cl)cc1)C(=O)Nc1nc2ccccc2[nH]1` (centres undefined), the RP-LC retention time was 785 s.

`Cc1oc(-c2ccccc2)nc1CN1C(=O)C(O)(c2cccc(F)c2)c2ccccc21` (centres undefined) came in with an RP-LC retention time of 1100 s.

Consider `CCC(=O)N(C1CCOCC1)C1CCN(Cc2cn(C)c3ccccc23)CC1`, for which the RP-LC retention time came to 638 s.

Compound `Cc1ccc(CNC(=O)C2(C)CCCN(C(=O)Nc3ccc(C)c(C)c3)C2)cc1` (centres undefined) showed an RP-LC retention time of 897 s.

With `COc1cc(-c2noc(Cn3ccn(-c4ccccc4)c(=O)c3=O)n2)cc(OC)c1OC`, the RP-LC retention time is 749 s.

`O=c1c2sccc2n(Cc2nc(-c3ccc(Br)cc3)no2)c(=O)n1Cc1ccccc1`: the RP-LC retention time is 1200 s.

On to `COc1ccc(-c2noc(-c3nc(C(C)C)no3)n2)cc1OC`, for which the RP-LC retention time stood at 1050 s.

For the compound `CCc1cccc(NC(=O)Cn2nc3c(N(C)C4CCCCC4)nccn3c2=O)c1`, the RP-LC retention time stood at 851 s.

Compound `COc1cc(CNC(=O)c2cn3ccc(C)cc3n2)cc(OC)c1` returned an RP-LC retention time of 632 s.

Turning to `CC(C)(Oc1ccc(Cl)cc1)C(=O)Nc1ccc2cn[nH]c2c1`, the RP-LC retention time was found to be 822 s.

`Cc1cccc(NC(=O)N2CCC(n3cnc4cc(Cl)ccc4c3=O)CC2)c1`: the RP-LC retention time was found to be 877 s.

As for `C=CCn1nc2ccc(S(=O)(=O)N3CCC(C)CC3)cn2c1=O`, the RP-LC retention time worked out at 843 s.

As to `CSc1cccc(NC(=O)NC2CCN(c3ccc(F)cc3)C2=O)c1` (centres undefined), the RP-LC retention time was 824 s.

For the compound `O=C(O)c1ccccc1-c1ccccc1C(=O)Nc1ccc2c(c1)Cc1ccccc1-2`, the RP-LC retention time was found to be 939 s.

With `CCCNc1cc(N2CCC(CCC(=O)N3CCC(C(=O)OCC)CC3)CC2)ncn1`, the RP-LC retention time came to 664 s.

Consider `CCOC(=O)c1csc(NC(=O)C2CCCN(c3cc(-n4cccn4)ncn3)C2)n1` (centres undefined), for which the RP-LC retention time is 796 s.

Take `COc1cccc(-c2nnc(Cc3nc(-c4ccc(SC)cc4)no3)o2)c1`: the RP-LC retention time worked out at 1050 s.

The compound `O=C(Cc1c[nH]c2ncccc12)NC1CCN(Cc2ccccc2)CC1` showed an RP-LC retention time of 736 s.

In turn, `O=C(NCCN1CCOCC1)c1ccc(CS(=O)Cc2cccc(Cl)c2)o1` (centres undefined) displayed an RP-LC retention time of 601 s.

`CCN1C(=O)COc2ccc(-c3csc(NC(=O)c4ccc(C)cc4)n3)cc21` returned an RP-LC retention time of 1040 s.

On to `COc1ccc(OC)c(CNC(=O)C2CCCN(c3nccnc3Sc3ccc(C)cc3)C2)c1` (centres undefined), for which the RP-LC retention time amounted to 1070 s.

The compound `CCCNC(=O)N1CC(c2nc(-c3ccccc3)no2)C2(CCOCC2)C1` (centres undefined) registered an RP-LC retention time of 770 s.

As to `Cc1noc(C)c1CCC(=O)N1CCC(c2nnc(-c3ccco3)s2)CC1`, the RP-LC retention time was 666 s.

For `Cc1oc2c(c1C(=O)Nc1ccc(C(F)(F)F)cc1)C1=NC(C)(C)CN1C=N2`, the RP-LC retention time was 728 s.

Compound `CC(C)CC(=O)N1c2nc(-c3ccccc3)nn2C2(CCCCC2)[C@@H]2CCCC[C@@H]21` came in with an RP-LC retention time of 674 s.

As for `Cc1ccc(NC(=O)CN2C(=O)NC3(CCCCC3)C2=O)cc1C`, the RP-LC retention time was 792 s.

In the case of `O=C(Nc1cccc(C(F)(F)F)c1)c1cnc(-c2ccc(F)cc2)nc1-c1ccncc1`, the RP-LC retention time turned out to be 1060 s.

Regarding `CCC(C)C(NC(=O)c1ccc(F)c(F)c1)C(=O)Nc1nc2ccccc2[nH]1` (centres undefined), the RP-LC retention time came out at 774 s.

With `COc1cccc(NC(=O)N2CCCC2c2nc(-c3cccc(Cl)c3)no2)c1` (centres undefined), the RP-LC retention time was 1050 s.

In the case of `Cc1cc(C)n2nc(SCC(=O)Nc3ccc(F)cc3)nc2n1`, the RP-LC retention time turned out to be 724 s.

`Cc1ccc(Nc2c(-c3cccc(Br)c3)nc3cccc(C)n23)cc1` returned an RP-LC retention time of 826 s.

`Cc1ccc(CN(C)Cc2cc(=O)n3ccccc3n2)cc1` gave an RP-LC retention time of 606 s.

Compound `Cc1ccc(Cl)c(NS(=O)(=O)c2cc(-c3[nH]ncc3C(=O)N(C)C)oc2C)c1` showed an RP-LC retention time of 717 s.

`Cc1csc(-c2cc(S(=O)(=O)NCC3CC3)cn2CC(=O)N2CCCCC2)n1` returned an RP-LC retention time of 905 s.

Consider `COc1cccc(-n2c(=O)c(C(=O)Nc3ccccc3Cl)c(O)c3cccnc32)c1`, for which the RP-LC retention time was found to be 1290 s.

The compound `Cc1onc(-c2ccccc2Cl)c1C(=O)Nc1cc(C(=O)N2CCCC2)cn(C)c1=O` gave an RP-LC retention time of 699 s.

`O=S(=O)(NCCc1ccccn1)c1ccc2ccccc2c1`: the RP-LC retention time was 574 s.

As for `O=C(Nc1ccc(S(=O)(=O)N2CCc3ccccc32)cc1)c1ccc(Br)o1`, the RP-LC retention time was found to be 960 s.

Consider `Cc1c(C(=O)N2CCSCC2)cnn1-c1cc(-c2nc(C(C)C)no2)ccn1`, for which the RP-LC retention time was determined as 974 s.

Compound `Cc1ccc(N2CCC(NC(=O)c3ccc(Cl)s3)C2=O)cc1` (centres undefined) displayed an RP-LC retention time of 888 s.

`O=C(OCc1cc(-c2cccs2)on1)c1cc(-c2ccco2)n[nH]1` showed an RP-LC retention time of 786 s.

The compound `Cn1cc(-c2ccncc2)cc1C(=O)N1CCN(c2ccc(Cl)cc2)CC1` returned an RP-LC retention time of 682 s.

`COc1ccc(OC)c(NC(=O)c2c(C)oc3nc(C)nc(N4CCOCC4)c23)c1` had an RP-LC retention time of 818 s.

Compound `O=C(NCc1ccc(N2CCCCC2)nc1)C1CCCCC1` displayed an RP-LC retention time of 616 s.

The compound `Cc1ccc(Sc2nccnc2N2CCCC(C(=O)Nc3ccc(F)c(C)c3)C2)cc1` (centres undefined) yielded an RP-LC retention time of 1230 s.

As to `CCc1ccc(S(=O)(=O)NCC2CCN(C(=O)Nc3ccccc3OC)CC2)s1`, the RP-LC retention time came out at 878 s.

For the compound `CC1(C)C(=O)N(CC(=O)Nc2ccc(F)cc2)c2ccccc21`, the RP-LC retention time amounted to 866 s.

`Cn1c(SCc2ccc([N+](=O)[O-])cc2)nnc1-c1ccc2c(c1)OCO2` had an RP-LC retention time of 721 s.

Regarding `COCCC(=O)Nc1ccc2c(c1)Sc1ncccc1C(=O)N2C`, the RP-LC retention time was determined as 612 s.

In turn, `CCCn1ncc(N2CCC(C(=O)N(C)Cc3cn(C)nc3C)CC2)cc1=O` registered an RP-LC retention time of 619 s.

Compound `COc1ccc(Cl)cc1S(=O)(=O)N(C)C1CCc2nn(CC3CC3)c(=O)n2CC1` (centres undefined) returned an RP-LC retention time of 958 s.

`CC(C)[C@H](C(=O)Nc1ccc(C(=O)NO)cc1)c1ccccc1`: the RP-LC retention time was found to be 791 s.

Compound `CCc1ccc(C2=C(C)C(N3CCCN(C(=O)c4ccccn4)CC3)=NS2(=O)=O)cc1` yielded an RP-LC retention time of 788 s.

`Cc1n[nH]c(C)c1Sc1ccccc1[N+](=O)[O-]` had an RP-LC retention time of 739 s.

In the case of `O=C(c1ccc(CS(=O)c2ccccc2)o1)N1CCN(c2ccccn2)CC1` (centres undefined), the RP-LC retention time is 560 s.

As for `CC1CCN(S(=O)(=O)c2ccc(-c3nnc(C(=O)NCCCN4CCOCC4)o3)cc2)CC1`, the RP-LC retention time was 664 s.

In turn, `Cc1ccc(-c2noc(Cc3nnc(-c4cc(C)cc(C)c4)o3)n2)cc1` had an RP-LC retention time of 1190 s.

Regarding `CCc1cc(=O)n(CC(=O)Nc2ccc(F)cc2)c(N)n1`, the RP-LC retention time was 596 s.

`O=C(Nc1nccnc1C(=O)NCc1cccnc1)c1ccccc1` came in with an RP-LC retention time of 584 s.

`O=c1ccn2c(n1)SC(c1ccccc1)C2` (centres undefined) displayed an RP-LC retention time of 655 s.

Consider `CCCn1cc(-c2ccncc2)cc1C(=O)Nc1ccc2c(c1)OCCO2`, for which the RP-LC retention time was found to be 679 s.

Turning to `CCn1c(C)c(C(=O)CN(CC2CCCO2)C(=O)c2cccc(F)c2)c(C)c1C(=O)OC` (centres undefined), the RP-LC retention time came to 896 s.

`CC(C)c1nnc(-c2ccc(S(=O)(=O)N3CCOCC3)o2)o1`: the RP-LC retention time worked out at 754 s.

Consider `COc1cc([C@@H]2c3cc4c(cc3[C@@H](O[C@@H]3O[C@@H]5COC(c6cccs6)O[C@H]5[C@H](O)[C@H]3O)[C@H]3COC(=O)[C@H]23)OCO4)cc(OC)c1O` (some centres undefined), for which the RP-LC retention time turned out to be 780 s.

In turn, `CC(C)OCCCNC(=O)CN1C(=O)C2CCCCN2c2ccc(C(=O)N3CCCC3)cc21` (centres undefined) came in with an RP-LC retention time of 746 s.

For the origin of these results see the METLIN SMRT retention time set (Domingo-Almenara et al. 2019).
